Literature values, collected in patent US20210361561A1, “A pouch product suitable for application in an oral cavity” (priority 2019, published 2021).

Experiments:
CB1 receptors = CB1 receptors (Homo sapiens, UniProt P21554)
CB2 receptors = CB2 receptors (Homo sapiens, UniProt P34972); details: compared with CB1 receptors
Chain of CB2 receptors (P34972 whole entry): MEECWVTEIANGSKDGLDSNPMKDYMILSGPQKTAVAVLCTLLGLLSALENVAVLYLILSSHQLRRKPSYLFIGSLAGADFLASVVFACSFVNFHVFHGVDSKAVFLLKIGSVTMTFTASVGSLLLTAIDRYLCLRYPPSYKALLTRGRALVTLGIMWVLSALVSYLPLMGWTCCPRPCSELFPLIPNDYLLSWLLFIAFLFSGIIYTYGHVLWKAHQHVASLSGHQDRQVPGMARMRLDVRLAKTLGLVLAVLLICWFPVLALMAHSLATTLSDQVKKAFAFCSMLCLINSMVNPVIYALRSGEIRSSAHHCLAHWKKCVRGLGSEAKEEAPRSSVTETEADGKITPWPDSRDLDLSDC

Chain of CB1 receptors (P21554 whole entry): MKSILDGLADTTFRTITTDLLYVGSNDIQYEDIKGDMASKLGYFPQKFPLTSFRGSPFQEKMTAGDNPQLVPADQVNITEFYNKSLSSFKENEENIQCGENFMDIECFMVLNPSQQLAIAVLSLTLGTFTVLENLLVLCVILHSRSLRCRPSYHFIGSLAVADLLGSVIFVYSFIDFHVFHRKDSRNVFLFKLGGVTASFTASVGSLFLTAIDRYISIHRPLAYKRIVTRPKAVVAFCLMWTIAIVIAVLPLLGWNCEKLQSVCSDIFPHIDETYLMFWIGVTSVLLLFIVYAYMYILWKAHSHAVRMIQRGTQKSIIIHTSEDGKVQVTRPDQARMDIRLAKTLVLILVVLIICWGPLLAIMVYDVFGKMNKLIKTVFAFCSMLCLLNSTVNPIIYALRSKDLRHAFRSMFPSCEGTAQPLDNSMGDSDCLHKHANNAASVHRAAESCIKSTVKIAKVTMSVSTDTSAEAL

In the case of `CCCCCc1cc(O)c2c(c1)OC(C)(C)c1ccc(C)cc1-2` [CBN, 6,6,9-Trimethyl-3-pentyl-benzo[c]chromen-1-ol], the “activity at the CB1 receptors” value (CB1 receptors) is listed as “partial agonist”, the “affinities relative to THC” value (CB1 receptors; CB1 and CB2 receptors) is listed as “lower affinities relative to THC” and the “affinity to CB2 receptors” value (CB2 receptors) is listed as “higher affinity”.
